Measurements: ChEMBL document CHEMBL1201861, “Genomics of Drug Sensitity in Cancer screening data, Wellcome Trust Sanger Institute”

Each compound was assayed on OC-314 (assay: cells). Conditions: Homo sapiens, OC-314.
Type: functional, cell-based, Homo sapiens
Description: SANGER: Inhibition of human OC-314 cell growth in a cell viability assay.
With CCN(CC)CCCCNc1ncc2cc(-c3cc(OC)cc(OC)c3)c(NC(=O)NC(C)(C)C)nc2n1 [PD-173074] the IC50 was > 2000 nM.

These compounds were tested on ABC-1 (assay: cells). Conditions: Homo sapiens, ABC-1.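 Also: growth inhibition of human ABC-1 cells, read out by a cell viability assay.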
Type: functional, cell-based, Homo sapiens
Description: SANGER: Inhibition of human ABC-1 cell growth in a cell viability assay.
For CCN(CC)CCCCNc1ncc2cc(-c3cc(OC)cc(OC)c3)c(NC(=O)NC(C)(C)C)nc2n1 [PD-173074], the IC50 was > 2000 nM.

These compounds were tested on SW1783 (assay: cells). Conditions: Homo sapiens, SW1783.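 Also: cell growth inhibition measured with a viability assay.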
Type: functional, cell-based, Homo sapiens
Description: SANGER: Inhibition of human SW1783 cell growth in a cell viability assay.
With CCN(CC)CCCCNc1ncc2cc(-c3cc(OC)cc(OC)c3)c(NC(=O)NC(C)(C)C)nc2n1 [PD-173074] the IC50 was > 2000 nM.

Each compound was assayed on DBTRG-05MG (assay: cells). Conditions: Homo sapiens, DBTRG-05MG.
Type: functional, cell-based, Homo sapiens
Description: SANGER: Inhibition of human DBTRG-05MG cell growth in a cell viability assay.
For CCN(CC)CCCCNc1ncc2cc(-c3cc(OC)cc(OC)c3)c(NC(=O)NC(C)(C)C)nc2n1 [PD-173074], the IC50 was > 2000 nM.

Each compound was assayed on HTC-C3 (assay: cells). Conditions: Homo sapiens, HTC-C3.
Type: functional, cell-based, Homo sapiens
Description: SANGER: Inhibition of human HTC-C3 cell growth in a cell viability assay.
CCN(CC)CCCCNc1ncc2cc(-c3cc(OC)cc(OC)c3)c(NC(=O)NC(C)(C)C)nc2n1 [PD-173074] was tested, and the IC50 was > 2000 nM.

These compounds were tested on VMRC-RCZ (assay: cells). Conditions: Homo sapiens, VMRC-RCZ.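 Also: growth inhibition measured with a cell viability assay.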
Type: functional, cell-based, Homo sapiens
Description: SANGER: Inhibition of human VMRC-RCZ cell growth in a cell viability assay.
With CCN(CC)CCCCNc1ncc2cc(-c3cc(OC)cc(OC)c3)c(NC(=O)NC(C)(C)C)nc2n1 [PD-173074] the IC50 was > 2000 nM.

These compounds were tested on CHL-1 (assay: cells). Conditions: Homo sapiens, CHL-1.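 Also: cell growth inhibition, read out with a cell viability assay.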
Type: functional, cell-based, Homo sapiens
Description: SANGER: Inhibition of human CHL-1 cell growth in a cell viability assay.
With CCN(CC)CCCCNc1ncc2cc(-c3cc(OC)cc(OC)c3)c(NC(=O)NC(C)(C)C)nc2n1 [PD-173074] the IC50 was > 2000 nM.

The compounds below were run on HT-1080 (assay: cells). Conditions: Homo sapiens, HT-1080.
Type: functional, cell-based, Homo sapiens
Description: SANGER: Inhibition of human HT-1080 cell growth in a cell viability assay.
With CCN(CC)CCCCNc1ncc2cc(-c3cc(OC)cc(OC)c3)c(NC(=O)NC(C)(C)C)nc2n1 [PD-173074] the IC50 was > 2000 nM.

These compounds were tested on HSC-3 (assay: cells). Conditions: Homo sapiens, HSC-3.
Type: functional, cell-based, Homo sapiens
Description: SANGER: Inhibition of human HSC-3 cell growth in a cell viability assay.
For CCN(CC)CCCCNc1ncc2cc(-c3cc(OC)cc(OC)c3)c(NC(=O)NC(C)(C)C)nc2n1 [PD-173074], the IC50 was > 2000 nM.

What follows are compounds tested on 786-0 (assay: cells). Conditions: Homo sapiens.
Type: functional, cell-based, Homo sapiens
Description: SANGER: Inhibition of human 786-0 cell growth in a cell viability assay.
CCN(CC)CCCCNc1ncc2cc(-c3cc(OC)cc(OC)c3)c(NC(=O)NC(C)(C)C)nc2n1 [PD-173074] was tested, and the IC50 was > 2000 nM.

What follows are compounds tested on HOS (assay: cells). Conditions: Homo sapiens, HOS.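 Also: growth inhibition of human HOS cells, read out with a cell viability assay.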
Type: functional, cell-based, Homo sapiens
Description: SANGER: Inhibition of human HOS cell growth in a cell viability assay.
CCN(CC)CCCCNc1ncc2cc(-c3cc(OC)cc(OC)c3)c(NC(=O)NC(C)(C)C)nc2n1 [PD-173074] was tested, and the IC50 was > 2000 nM.

These compounds were tested on PANC-08-13 (assay: cells). Conditions: Homo sapiens, PANC-08-13.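 Also: cell growth inhibition, measured with a cell viability assay.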
Type: functional, cell-based, Homo sapiens
Description: SANGER: Inhibition of human PANC-08-13 cell growth in a cell viability assay.
CCN(CC)CCCCNc1ncc2cc(-c3cc(OC)cc(OC)c3)c(NC(=O)NC(C)(C)C)nc2n1 [PD-173074] was tested, and the IC50 was > 2000 nM.

The compounds below were run on RT-112 (assay: cells). Conditions: Homo sapiens, RT-112.
Type: functional, cell-based, Homo sapiens
Description: SANGER: Inhibition of human RT-112 cell growth in a cell viability assay.
CCN(CC)CCCCNc1ncc2cc(-c3cc(OC)cc(OC)c3)c(NC(=O)NC(C)(C)C)nc2n1 [PD-173074] was tested, and the IC50 was 547 nM.

The compounds below were run on BCPAP (assay: cells). Conditions: Homo sapiens, BCPAP.
Type: functional, cell-based, Homo sapiens
Description: SANGER: Inhibition of human BCPAP cell growth in a cell viability assay.
In the case of CCN(CC)CCCCNc1ncc2cc(-c3cc(OC)cc(OC)c3)c(NC(=O)NC(C)(C)C)nc2n1 [PD-173074], the IC50 is reported as > 2000 nM.

These compounds were tested on HuO9 (assay: cells). Conditions: Homo sapiens, HuO9.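 Also: growth inhibition of HuO9 cells, read out with a cell viability assay.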
Type: functional, cell-based, Homo sapiens
Description: SANGER: Inhibition of human HuO9 cell growth in a cell viability assay.
For CCN(CC)CCCCNc1ncc2cc(-c3cc(OC)cc(OC)c3)c(NC(=O)NC(C)(C)C)nc2n1 [PD-173074], the IC50 was > 2000 nM.

These compounds were tested on MC-IXC (assay: cells). Conditions: Homo sapiens, MC-IXC.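 Also: growth inhibition of MC-IXC cells, read out with a cell viability assay.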
Type: functional, cell-based, Homo sapiens
Description: SANGER: Inhibition of human MC-IXC cell growth in a cell viability assay.
CCN(CC)CCCCNc1ncc2cc(-c3cc(OC)cc(OC)c3)c(NC(=O)NC(C)(C)C)nc2n1 [PD-173074] was tested, and the IC50 was > 2000 nM.

Each compound was assayed on A2058 (assay: cells). Conditions: Homo sapiens, A2058.
Type: functional, cell-based, Homo sapiens
Description: SANGER: Inhibition of human A2058 cell growth in a cell viability assay.
CCN(CC)CCCCNc1ncc2cc(-c3cc(OC)cc(OC)c3)c(NC(=O)NC(C)(C)C)nc2n1 [PD-173074] was tested, and the IC50 was > 2000 nM.

The compounds below were run on HCC38 (assay: cells). Conditions: Homo sapiens, HCC38.
Type: functional, cell-based, Homo sapiens
Description: SANGER: Inhibition of human HCC38 cell growth in a cell viability assay.
CCN(CC)CCCCNc1ncc2cc(-c3cc(OC)cc(OC)c3)c(NC(=O)NC(C)(C)C)nc2n1 [PD-173074] was tested, and the IC50 was > 2000 nM.

The compounds below were run on HT-3 (assay: cells). Conditions: Homo sapiens, HT-3.
Type: functional, cell-based, Homo sapiens
Description: SANGER: Inhibition of human HT-3 cell growth in a cell viability assay.
For CCN(CC)CCCCNc1ncc2cc(-c3cc(OC)cc(OC)c3)c(NC(=O)NC(C)(C)C)nc2n1 [PD-173074], the IC50 was > 2000 nM.

What follows are compounds tested on UACC-893 (assay: cells). Conditions: Homo sapiens, UACC-893.
Type: functional, cell-based, Homo sapiens
Description: SANGER: Inhibition of human UACC-893 cell growth in a cell viability assay.
CCN(CC)CCCCNc1ncc2cc(-c3cc(OC)cc(OC)c3)c(NC(=O)NC(C)(C)C)nc2n1 [PD-173074] was tested, and the IC50 was > 2000 nM.

Each compound was assayed on AN3-CA (assay: cells). Conditions: Homo sapiens, AN3-CA.
Type: functional, cell-based, Homo sapiens
Description: SANGER: Inhibition of human AN3-CA cell growth in a cell viability assay.
With CCN(CC)CCCCNc1ncc2cc(-c3cc(OC)cc(OC)c3)c(NC(=O)NC(C)(C)C)nc2n1 [PD-173074] the IC50 was 401 nM.

What follows are compounds tested on DOK (assay: cells). Conditions: Homo sapiens, DOK.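 Also: cell viability assay read-out, values reflect inhibition of cell growth.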
Type: functional, cell-based, Homo sapiens
Description: SANGER: Inhibition of human DOK cell growth in a cell viability assay.
CCN(CC)CCCCNc1ncc2cc(-c3cc(OC)cc(OC)c3)c(NC(=O)NC(C)(C)C)nc2n1 [PD-173074] was tested, and the IC50 was > 2000 nM.

What follows are compounds tested on A-431 (assay: cells). Conditions: Homo sapiens, A-431.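 Also: growth inhibition of A-431 cells, determined with a cell viability read-out.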
Type: functional, cell-based, Homo sapiens
Description: SANGER: Inhibition of human A431 cell growth in a cell viability assay.
CCN(CC)CCCCNc1ncc2cc(-c3cc(OC)cc(OC)c3)c(NC(=O)NC(C)(C)C)nc2n1 [PD-173074] was tested, and the IC50 was > 2000 nM.

Each compound was assayed on COLO-679 (assay: cells). Conditions: Homo sapiens, COLO-679.
Type: functional, cell-based, Homo sapiens
Description: SANGER: Inhibition of human COLO-679 cell growth in a cell viability assay.
With CCN(CC)CCCCNc1ncc2cc(-c3cc(OC)cc(OC)c3)c(NC(=O)NC(C)(C)C)nc2n1 [PD-173074] the IC50 was > 2000 nM.

Each compound was assayed on C-33-A (assay: cells). Conditions: Homo sapiens, C-33-A.
Type: functional, cell-based, Homo sapiens
Description: SANGER: Inhibition of human C-33-A cell growth in a cell viability assay.
CCN(CC)CCCCNc1ncc2cc(-c3cc(OC)cc(OC)c3)c(NC(=O)NC(C)(C)C)nc2n1 [PD-173074] was tested, and the IC50 was > 2000 nM.

These compounds were tested on NCI-H292 (assay: cells). Conditions: Homo sapiens, NCI-H292.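 Also: growth inhibition of NCI-H292 cells, read out with a cell viability assay.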
Type: functional, cell-based, Homo sapiens
Description: SANGER: Inhibition of human NCI-H292 cell growth in a cell viability assay.
In the case of CCN(CC)CCCCNc1ncc2cc(-c3cc(OC)cc(OC)c3)c(NC(=O)NC(C)(C)C)nc2n1 [PD-173074], the IC50 is reported as > 2000 nM.

Each compound was assayed on FaDu (assay: cells). Conditions: Homo sapiens, FaDu.
Type: functional, cell-based, Homo sapiens
Description: SANGER: Inhibition of human FADU cell growth in a cell viability assay.
With CCN(CC)CCCCNc1ncc2cc(-c3cc(OC)cc(OC)c3)c(NC(=O)NC(C)(C)C)nc2n1 [PD-173074] the IC50 was > 2000 nM.

The compounds below were run on J82 (assay: cells). Conditions: Homo sapiens, J82.
Type: functional, cell-based, Homo sapiens
Description: SANGER: Inhibition of human J82 cell growth in a cell viability assay.
With CCN(CC)CCCCNc1ncc2cc(-c3cc(OC)cc(OC)c3)c(NC(=O)NC(C)(C)C)nc2n1 [PD-173074] the IC50 was > 2000 nM.

What follows are compounds tested on MKN-1 (assay: cells). Conditions: Homo sapiens, MKN-1.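 Also: growth inhibition of human MKN1 cells, read out by a cell viability measurement.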
Type: functional, cell-based, Homo sapiens
Description: SANGER: Inhibition of human MKN1 cell growth in a cell viability assay.
In the case of CCN(CC)CCCCNc1ncc2cc(-c3cc(OC)cc(OC)c3)c(NC(=O)NC(C)(C)C)nc2n1 [PD-173074], the IC50 is reported as > 2000 nM.

The compounds below were run on SNU-387 (assay: cells). Conditions: Homo sapiens, SNU-387.
Type: functional, cell-based, Homo sapiens
Description: SANGER: Inhibition of human SNU-387 cell growth in a cell viability assay.
For CCN(CC)CCCCNc1ncc2cc(-c3cc(OC)cc(OC)c3)c(NC(=O)NC(C)(C)C)nc2n1 [PD-173074], the IC50 was > 2000 nM.

The compounds below were run on DK-MG (assay: cells). Conditions: Homo sapiens, DK-MG.
Type: functional, cell-based, Homo sapiens
Description: SANGER: Inhibition of human DK-MG cell growth in a cell viability assay.
In the case of CCN(CC)CCCCNc1ncc2cc(-c3cc(OC)cc(OC)c3)c(NC(=O)NC(C)(C)C)nc2n1 [PD-173074], the IC50 is reported as > 2000 nM.

Each compound was assayed on A204 (assay: cells). Conditions: Homo sapiens, A204.
Type: functional, cell-based, Homo sapiens
Description: SANGER: Inhibition of human A204 cell growth in a cell viability assay.
For CCN(CC)CCCCNc1ncc2cc(-c3cc(OC)cc(OC)c3)c(NC(=O)NC(C)(C)C)nc2n1 [PD-173074], the IC50 was > 2000 nM.

The compounds below were run on H-EMC-SS (assay: cells). Conditions: Homo sapiens, H-EMC-SS.
Type: functional, cell-based, Homo sapiens
Description: SANGER: Inhibition of human H-EMC-SS cell growth in a cell viability assay.
With CCN(CC)CCCCNc1ncc2cc(-c3cc(OC)cc(OC)c3)c(NC(=O)NC(C)(C)C)nc2n1 [PD-173074] the IC50 was 347 nM.

The compounds below were run on COLO-680N (assay: cells). Conditions: Homo sapiens, COLO-680N.
Type: functional, cell-based, Homo sapiens
Description: SANGER: Inhibition of human COLO-680N cell growth in a cell viability assay.
In the case of CCN(CC)CCCCNc1ncc2cc(-c3cc(OC)cc(OC)c3)c(NC(=O)NC(C)(C)C)nc2n1 [PD-173074], the IC50 is reported as > 2000 nM.

What follows are compounds tested on BT-20 (assay: cells). Conditions: Homo sapiens, BT-20.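 Also: cell viability assay measuring suppression of growth in human BT-20 cells.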
Type: functional, cell-based, Homo sapiens
Description: SANGER: Inhibition of human BT-20 cell growth in a cell viability assay.
With CCN(CC)CCCCNc1ncc2cc(-c3cc(OC)cc(OC)c3)c(NC(=O)NC(C)(C)C)nc2n1 [PD-173074] the IC50 was > 2000 nM.

These compounds were tested on BHY (assay: cells). Conditions: Homo sapiens, BHY.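 Also: cell growth inhibition read out by a viability assay.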
Type: functional, cell-based, Homo sapiens
Description: SANGER: Inhibition of human BHY cell growth in a cell viability assay.
CCN(CC)CCCCNc1ncc2cc(-c3cc(OC)cc(OC)c3)c(NC(=O)NC(C)(C)C)nc2n1 [PD-173074] was tested, and the IC50 was > 2000 nM.

What follows are compounds tested on NCI-H2052 (assay: cells). Conditions: Homo sapiens, NCI-H2052.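 Also: growth inhibition of NCI-H2052 cells, read out with a cell viability assay.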
Type: functional, cell-based, Homo sapiens
Description: SANGER: Inhibition of human NCI-H2052 cell growth in a cell viability assay.
CCN(CC)CCCCNc1ncc2cc(-c3cc(OC)cc(OC)c3)c(NC(=O)NC(C)(C)C)nc2n1 [PD-173074] was tested, and the IC50 was > 2000 nM.

These compounds were tested on NCI-H1563 (assay: cells). Conditions: Homo sapiens, NCI-H1563.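 Also: growth inhibition of human NCI-H1563 cells, read out with a cell viability assay.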
Type: functional, cell-based, Homo sapiens
Description: SANGER: Inhibition of human NCI-H1563 cell growth in a cell viability assay.
CCN(CC)CCCCNc1ncc2cc(-c3cc(OC)cc(OC)c3)c(NC(=O)NC(C)(C)C)nc2n1 [PD-173074] was tested, and the IC50 was > 2000 nM.

These compounds were tested on NCI-H2029 (assay: cells). Conditions: Homo sapiens, NCI-H2029.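 Also: Read-out is a viability assay on the cultured cells, and IC50 is the concentration that suppresses cell growth.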
Type: functional, cell-based, Homo sapiens
Description: SANGER: Inhibition of human NCI-H2029 cell growth in a cell viability assay.
With CCN(CC)CCCCNc1ncc2cc(-c3cc(OC)cc(OC)c3)c(NC(=O)NC(C)(C)C)nc2n1 [PD-173074] the IC50 was > 2000 nM.

Each compound was assayed on SW837 (assay: cells). Conditions: Homo sapiens, SW837.
Type: functional, cell-based, Homo sapiens
Description: SANGER: Inhibition of human SW837 cell growth in a cell viability assay.
For CCN(CC)CCCCNc1ncc2cc(-c3cc(OC)cc(OC)c3)c(NC(=O)NC(C)(C)C)nc2n1 [PD-173074], the IC50 was > 2000 nM.

Each compound was assayed on CP50-MEL-B (assay: cells). Conditions: Homo sapiens, CP50-MEL-B.
Type: functional, cell-based, Homo sapiens
Description: SANGER: Inhibition of human CP50-MEL-B cell growth in a cell viability assay.
In the case of CCN(CC)CCCCNc1ncc2cc(-c3cc(OC)cc(OC)c3)c(NC(=O)NC(C)(C)C)nc2n1 [PD-173074], the IC50 is reported as > 2000 nM.

The compounds below were run on MHH-ES-1 (assay: cells). Conditions: Homo sapiens, MHH-ES-1.
Type: functional, cell-based, Homo sapiens
Description: SANGER: Inhibition of human MHH-ES-1 cell growth in a cell viability assay.
CCN(CC)CCCCNc1ncc2cc(-c3cc(OC)cc(OC)c3)c(NC(=O)NC(C)(C)C)nc2n1 [PD-173074] was tested, and the IC50 was > 2000 nM.
